Assay results published in ChEMBL document CHEMBL1201862, “PubChem BioAssay data set” (2004).
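Assay format: 96-well plates, 48-hour exposure. Abbreviation: GI50, concentration required for 50% inhibition of growth.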 Activity calls are given as the source filed them. Cut-off read from the data, not from the text of the source: active = GI50 up to about 1.1 µM and inactive = higher.

Tests used:
Assay in all cases: DTP human tumour cell line panel, 48 h
MDA-MB-231 = tested on: MDA-MB-231
OVCAR-4 = tested on: OVCAR-4
Malme-3M = tested on: Malme-3M
SN12C = tested on: SN12C
OVCAR-5 = tested on: OVCAR-5
HT-29 = tested on: HT-29
A549 = tested on: A549
COLO 205 = tested on: COLO 205
BT-549 = tested on: BT-549
UO-31 = tested on: UO-31
786-0 = tested on: 786-0
MDA-N = tested on: MDA-N
MDA-MB-435 = tested on: MDA-MB-435
NCI-H226 = tested on: NCI-H226
M14 = tested on: M14
SK-MEL-5 = tested on: SK-MEL-5
SNB-75 = tested on: SNB-75
UACC-62 = tested on: UACC-62
IGROV-1 = tested on: IGROV-1
SR = tested on: SR

Compound	GI50 (MDA-MB-231)	GI50 (OVCAR-4)	GI50 (Malme-3M)	GI50 (SN12C)	GI50 (OVCAR-5)	GI50 (HT-29)	GI50 (A549)	GI50 (COLO 205)	GI50 (BT-549)	GI50 (UO-31)	GI50 (786-0)	GI50 (MDA-N)	GI50 (MDA-MB-435)	GI50 (NCI-H226)	GI50 (M14)	GI50 (SK-MEL-5)	GI50 (SNB-75)	GI50 (UACC-62)	GI50 (IGROV-1)	GI50 (SR)
CC1=[N+]([O-])C(C)(C)N(N=O)C1(C)C	> 10 µM (inactive)	> 10 µM (inactive)	> 10 µM (inactive)	> 10 µM (inactive)	> 10 µM (inactive)	> 10 µM (inactive)	> 10 µM (inactive)	> 10 µM (inactive)	> 10 µM (inactive)	> 10 µM (inactive)	> 10 µM (inactive)	> 10 µM (inactive)	> 10 µM (inactive)	> 10 µM (inactive)	> 10 µM (inactive)					
O=Nc1c(-c2c(O)[nH]c3ccc(I)cc23)[nH]c2ccccc12	3.79 µM (inactive)	3.41 µM (inactive)		3.72 µM (inactive)	3.25 µM (inactive)	3.48 µM (inactive)	3.27 µM (inactive)	4.26 µM (inactive)	18 µM (inactive)	2.19 µM (inactive)		4.97 µM (inactive)	4.55 µM (inactive)		> 21.6 µM (inactive)	4.12 µM (inactive)	5.33 µM (inactive)	2.69 µM (inactive)	2.13 µM (inactive)	
N#CC(C#N)=C1/C(=C/C=C/C=C/C=C/c2ccc(N3CCCCC3)s2)S(=O)(=O)c2ccccc21	> 100 µM (inactive)	> 100 µM (inactive)		> 100 µM (inactive)	> 100 µM (inactive)	> 100 µM (inactive)	> 100 µM (inactive)	> 100 µM (inactive)	> 100 µM (inactive)		93.1 µM (inactive)		> 100 µM (inactive)	> 100 µM (inactive)	> 100 µM (inactive)	> 100 µM (inactive)	> 100 µM (inactive)	> 100 µM (inactive)	> 100 µM (inactive)	50.5 µM (inactive)
COc1cc([C@@H]2c3cc4c(cc3[C@@H](c3c(O)cc(O)c5c3O[C@H](c3ccc(O)c(O)c3)[C@H](OC(=O)c3cc(O)c(O)c(O)c3)C5)[C@H]3COC(=O)[C@H]23)OCO4)cc(OC)c1O	57.8 µM (inactive)	> 100 µM (inactive)	> 100 µM (inactive)	22.3 µM (inactive)	39.4 µM (inactive)	25 µM (inactive)	29.4 µM (inactive)	28.7 µM (inactive)	> 100 µM (inactive)		22.5 µM (inactive)	18.4 µM (inactive)	22.6 µM (inactive)		23.4 µM (inactive)	25.8 µM (inactive)		98.9 µM (inactive)	57.7 µM (inactive)	
c1ccc(/N=C2\C(=N/c3ccccc3)N(C3CCCCC3)/C(=N\C3CCCCC3)N2c2ccccc2)cc1	> 100 µM (inactive)		> 100 µM (inactive)	> 10 µM (inactive)	> 100 µM (inactive)	> 100 µM (inactive)	> 100 µM (inactive)	> 100 µM (inactive)	> 100 µM (inactive)	> 100 µM (inactive)	> 100 µM (inactive)	> 100 µM (inactive)		> 100 µM (inactive)	> 100 µM (inactive)	> 100 µM (inactive)	> 100 µM (inactive)		> 100 µM (inactive)	> 100 µM (inactive)
COc1cccc(/C=N/n2c(-c3ccccc3)n[nH]c2=O)c1	29.5 µM (inactive)	> 100 µM (inactive)	> 100 µM (inactive)	87.7 µM (inactive)	> 100 µM (inactive)	> 100 µM (inactive)	91.2 µM (inactive)	> 100 µM (inactive)	26.9 µM (inactive)	> 100 µM (inactive)	40.8 µM (inactive)	> 100 µM (inactive)	> 100 µM (inactive)	43.7 µM (inactive)	> 100 µM (inactive)		34.3 µM (inactive)	72.4 µM (inactive)		
NC(=O)c1nc[nH]c1/N=N/SCC(N)C(=O)O (centres undefined)	6.04 µM (inactive)	11.3 µM (inactive)	5.9 µM (inactive)	6.73 µM (inactive)	> 94 µM (inactive)	> 100 µM (inactive)	> 100 µM (inactive)	21.2 µM (inactive)	> 90.8 µM (inactive)	4.22 µM (inactive)	19.4 µM (inactive)		33.1 µM (inactive)	> 44.8 µM (inactive)	2.81 µM (inactive)	57 µM (inactive)	24.3 µM (inactive)	6.31 µM (inactive)	12.8 µM (inactive)	0.773 µM (active)
COc1cc(OC)cc(C(=O)CC(=O)c2cc(OC)cc(OC)c2)c1			> 100 µM (inactive)	> 100 µM (inactive)	> 100 µM (inactive)		> 100 µM (inactive)	> 100 µM (inactive)	> 100 µM (inactive)	> 100 µM (inactive)	> 100 µM (inactive)	> 100 µM (inactive)	87.5 µM (inactive)	> 100 µM (inactive)	> 100 µM (inactive)	> 100 µM (inactive)	> 100 µM (inactive)	> 100 µM (inactive)	> 100 µM (inactive)	47.8 µM (inactive)
